In ChEMBL document CHEMBL5665443, “Enzyme Inhibitor Single Concentration assay results for EUbOPEN Chemogenomics Library” (2024):

How the values were obtained:
[1] = target: Methyl-CpG-binding domain protein 4 (Homo sapiens) (UniProt O95243); settings: Compound Concentration 10.0 uM, Hit No;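 note: MBD4 activity read as fluorescence at 594 nm from cleavage and release of a quenched duplex DNA oligonucleotide, with APE1 coupled to incise the strand and raise turnover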
Description: Inhibition of MBD4 by quantifying inhibition of MBD4-mediated cleavage and dissociation of quenched duplex DNA oligonucleotides, measured as fluorescence at 594 nm. To generate a functional strand incision and increase turn-over this assay is coupled to APE1.

[2] = target: DNA-3-methyladenine glycosylase (Homo sapiens) (UniProt P29372); settings: Compound Concentration 10.0 uM, Hit No;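 note: enzyme assay where MPG cuts a quenched duplex DNA oligonucleotide probe, paired with APE1 for strand incision and turnover, read as fluorescence at 594 nm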
Description: Inhibition of MPG by quantifying inhibition of MPG-mediated cleavage and dissociation of quenched duplex DNA oligonucleotides, measured as fluorescence at 594 nm. To generate a functional strand incision and increase turn-over this assay is coupled to APE1.

[3] = target: T1, Adenine DNA glycosylase (Homo sapiens) (UniProt Q9UIF7); settings: Compound Concentration 10.0 uM, Hit No;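 note: human MUTYH activity read as 594 nm fluorescence from cleavage and release of a quenched DNA duplex, coupled with APE1 for strand incision, lower signal meaning inhibition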
T1 sequence (whole entry): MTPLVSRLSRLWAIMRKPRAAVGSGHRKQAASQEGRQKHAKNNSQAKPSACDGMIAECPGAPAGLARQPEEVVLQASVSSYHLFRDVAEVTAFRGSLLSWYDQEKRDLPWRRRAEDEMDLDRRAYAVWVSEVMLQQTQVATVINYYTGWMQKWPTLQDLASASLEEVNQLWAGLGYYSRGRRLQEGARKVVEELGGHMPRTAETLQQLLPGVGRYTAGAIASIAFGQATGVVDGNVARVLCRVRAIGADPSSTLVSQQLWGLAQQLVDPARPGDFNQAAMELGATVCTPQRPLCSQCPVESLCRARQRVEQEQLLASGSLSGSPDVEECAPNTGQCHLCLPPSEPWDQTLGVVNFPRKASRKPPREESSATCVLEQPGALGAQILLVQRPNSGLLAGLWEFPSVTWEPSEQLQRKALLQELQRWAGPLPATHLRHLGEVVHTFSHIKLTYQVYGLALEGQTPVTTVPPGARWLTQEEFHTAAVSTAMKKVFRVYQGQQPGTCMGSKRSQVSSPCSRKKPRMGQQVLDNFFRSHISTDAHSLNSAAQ
Description: Inhibition of MUTYH by quantifying inhibition of MUTYH-mediated cleavage and dissociation of quenched duplex DNA oligonucleotides, measured as fluorescence at 594 nm. To generate a functional strand incision and increase turn-over this assay is coupled to APE1.

[4] = target: Endonuclease 8-like 1 (Homo sapiens) (UniProt Q96FI4); settings: Compound Concentration 10.0 uM, Hit No;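 note: fluorescence at 594 nm from quenched duplex DNA oligonucleotides released by NEIL1 cleavage and strand separation, reported as reduction of this enzyme activity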
Description: Inhibition of NEIL1 by quantifying inhibition of NEIL1-mediated cleavage and dissociation of quenched duplex DNA oligonucleotides, measured as fluorescence at 594 nm.

[5] = target: T2, Endonuclease 8-like 2 (Homo sapiens) (UniProt Q969S2); settings: Compound Concentration 10.0 uM, Hit No;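 note: fluorescence at 594 nm reports NEIL2 cutting and release of a quenched double-stranded DNA oligo substrate, reduced signal read as inhibition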
T2 sequence (whole entry): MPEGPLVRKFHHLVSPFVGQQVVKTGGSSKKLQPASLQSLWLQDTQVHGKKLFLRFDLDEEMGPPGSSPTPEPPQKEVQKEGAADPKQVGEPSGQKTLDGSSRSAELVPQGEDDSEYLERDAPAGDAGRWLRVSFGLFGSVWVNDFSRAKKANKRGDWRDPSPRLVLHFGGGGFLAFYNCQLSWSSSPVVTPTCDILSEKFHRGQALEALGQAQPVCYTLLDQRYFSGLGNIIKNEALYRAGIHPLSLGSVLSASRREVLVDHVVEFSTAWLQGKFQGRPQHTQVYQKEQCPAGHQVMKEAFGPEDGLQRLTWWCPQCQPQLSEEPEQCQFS
Description: Inhibition of NEIL2 by quantifying inhibition of NEIL2-mediated cleavage and dissociation of quenched duplex DNA oligonucleotides, measured as fluorescence at 594 nm.

[6] = target: N-glycosylase/DNA lyase (Homo sapiens) (UniProt O15527); settings: Compound Concentration 10.0 uM;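 note: OGG1 cleavage of a quenched duplex DNA oligonucleotide, coupled to APE1 for strand incision, read as fluorescence at 594 nm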
Description: Inhibition of OGG1 by quantifying inhibition of OGG1-mediated cleavage and dissociation of quenched duplex DNA oligonucleotides, measured as fluorescence at 594 nm. To generate a functional strand incision and increase turn-over this assay is coupled to APE1.

[7] = target: T3, Single-strand selective monofunctional uracil DNA glycosylase (Homo sapiens) (UniProt Q53HV7); settings: Compound Concentration 10.0 uM, Hit No;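 note: enzymatic SMUG1 assay coupled with APE1, reading fluorescence at 594 nm released when a quenched double-stranded DNA oligonucleotide substrate is cleaved and separated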
T3 sequence (whole entry): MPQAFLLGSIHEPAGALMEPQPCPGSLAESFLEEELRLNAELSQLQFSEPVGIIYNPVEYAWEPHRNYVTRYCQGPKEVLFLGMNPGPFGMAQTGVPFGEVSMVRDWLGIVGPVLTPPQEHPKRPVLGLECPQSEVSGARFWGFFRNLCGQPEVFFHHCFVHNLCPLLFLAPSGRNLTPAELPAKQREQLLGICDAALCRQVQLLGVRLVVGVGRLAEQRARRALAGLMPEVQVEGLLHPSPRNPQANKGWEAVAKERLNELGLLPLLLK
Description: Inhibition of SMUG1 by quantifying inhibition of SMUG1-mediated cleavage and dissociation of quenched duplex DNA oligonucleotides, measured as fluorescence at 594 nm. To generate a functional strand incision and increase turn-over this assay is coupled to APE1.

[8] = target: G/T mismatch-specific thymine DNA glycosylase (Homo sapiens) (UniProt Q13569); settings: Compound Concentration 10.0 uM, Hit No;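 note: human TDG cleavage of quenched duplex DNA oligonucleotides coupled to APE1, strand release read as fluorescence at 594 nm, inhibition of TDG activity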
Description: Inhibition of TDG by quantifying inhibition of TDG-mediated cleavage and dissociation of quenched duplex DNA oligonucleotides, measured as fluorescence at 594 nm. To generate a functional strand incision and increase turn-over this assay is coupled to APE1.

[9] = target: Uracil-DNA glycosylase (Homo sapiens) (UniProt P13051); settings: Compound Concentration 10.0 uM, Hit No;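 note: UNG excision on a quenched double-stranded DNA oligo probe, with APE1 added for strand incision and turnover, read as fluorescence at 594 nm as strands separate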
Sequence of Uracil-DNA glycosylase (Homo sapiens) (P13051 whole entry): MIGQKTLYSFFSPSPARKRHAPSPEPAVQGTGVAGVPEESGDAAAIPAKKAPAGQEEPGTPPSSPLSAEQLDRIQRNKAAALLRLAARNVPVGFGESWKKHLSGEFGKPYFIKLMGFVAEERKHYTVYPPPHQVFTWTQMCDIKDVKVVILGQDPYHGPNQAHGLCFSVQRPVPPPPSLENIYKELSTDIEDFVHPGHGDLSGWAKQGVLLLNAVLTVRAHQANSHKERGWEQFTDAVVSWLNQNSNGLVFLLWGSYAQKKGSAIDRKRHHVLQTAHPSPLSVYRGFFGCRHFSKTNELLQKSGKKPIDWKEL
Description: Inhibition of UNG by quantifying inhibition of UNG-mediated cleavage and dissociation of quenched duplex DNA oligonucleotides, measured as fluorescence at 594 nm. To generate a functional strand incision and increase turn-over this assay is coupled to APE1.

Sequence of G/T mismatch-specific thymine DNA glycosylase (Homo sapiens) (Q13569 whole entry): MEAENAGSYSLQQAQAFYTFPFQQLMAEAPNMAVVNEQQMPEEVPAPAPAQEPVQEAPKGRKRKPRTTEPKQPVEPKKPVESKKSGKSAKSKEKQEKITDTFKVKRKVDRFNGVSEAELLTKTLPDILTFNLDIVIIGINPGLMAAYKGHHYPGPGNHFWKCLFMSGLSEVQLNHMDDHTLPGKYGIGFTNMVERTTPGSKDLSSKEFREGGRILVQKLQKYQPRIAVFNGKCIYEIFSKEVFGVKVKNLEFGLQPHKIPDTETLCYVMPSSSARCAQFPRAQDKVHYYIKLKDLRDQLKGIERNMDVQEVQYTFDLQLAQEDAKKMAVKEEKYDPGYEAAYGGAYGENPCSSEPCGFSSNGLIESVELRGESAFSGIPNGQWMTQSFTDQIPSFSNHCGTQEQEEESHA
Sequence of DNA-3-methyladenine glycosylase (Homo sapiens) (P29372 whole entry): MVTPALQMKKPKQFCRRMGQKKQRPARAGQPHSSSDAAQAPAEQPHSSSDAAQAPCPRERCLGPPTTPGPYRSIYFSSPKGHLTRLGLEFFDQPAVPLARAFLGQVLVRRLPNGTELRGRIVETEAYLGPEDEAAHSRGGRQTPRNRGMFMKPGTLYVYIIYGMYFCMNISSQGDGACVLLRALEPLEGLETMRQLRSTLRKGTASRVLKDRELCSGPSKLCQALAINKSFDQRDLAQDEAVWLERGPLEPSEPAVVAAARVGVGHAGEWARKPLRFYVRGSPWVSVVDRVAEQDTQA
Sequence of Endonuclease 8-like 1 (Homo sapiens) (Q96FI4 whole entry): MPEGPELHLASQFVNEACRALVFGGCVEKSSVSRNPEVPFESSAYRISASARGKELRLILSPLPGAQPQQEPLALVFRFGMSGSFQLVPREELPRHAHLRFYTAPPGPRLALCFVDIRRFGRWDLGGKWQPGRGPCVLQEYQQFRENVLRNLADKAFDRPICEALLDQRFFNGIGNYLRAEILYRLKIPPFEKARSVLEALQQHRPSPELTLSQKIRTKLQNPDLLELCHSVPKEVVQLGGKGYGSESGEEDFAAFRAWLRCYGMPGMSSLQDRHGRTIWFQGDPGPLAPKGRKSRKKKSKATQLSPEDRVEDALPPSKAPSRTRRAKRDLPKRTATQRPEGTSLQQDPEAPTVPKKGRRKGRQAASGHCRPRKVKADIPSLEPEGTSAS
Sequence of Methyl-CpG-binding domain protein 4 (Homo sapiens) (O95243 whole entry, the tested form may be a part): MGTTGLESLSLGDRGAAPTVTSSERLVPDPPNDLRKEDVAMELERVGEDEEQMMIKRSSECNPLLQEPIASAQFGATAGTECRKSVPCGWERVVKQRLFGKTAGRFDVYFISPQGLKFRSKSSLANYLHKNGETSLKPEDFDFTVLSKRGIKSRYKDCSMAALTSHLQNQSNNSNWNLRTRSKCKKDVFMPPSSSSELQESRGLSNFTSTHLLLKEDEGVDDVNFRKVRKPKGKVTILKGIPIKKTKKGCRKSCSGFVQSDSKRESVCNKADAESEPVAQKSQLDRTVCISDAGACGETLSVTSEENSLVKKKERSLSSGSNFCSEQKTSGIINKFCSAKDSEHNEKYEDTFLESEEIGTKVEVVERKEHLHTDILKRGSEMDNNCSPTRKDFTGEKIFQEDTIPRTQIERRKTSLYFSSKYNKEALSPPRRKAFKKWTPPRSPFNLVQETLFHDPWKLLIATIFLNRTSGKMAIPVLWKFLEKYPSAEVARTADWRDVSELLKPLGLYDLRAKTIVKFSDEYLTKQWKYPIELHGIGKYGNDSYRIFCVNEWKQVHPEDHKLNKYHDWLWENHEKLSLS
Sequence of N-glycosylase/DNA lyase (Homo sapiens) (O15527 whole entry): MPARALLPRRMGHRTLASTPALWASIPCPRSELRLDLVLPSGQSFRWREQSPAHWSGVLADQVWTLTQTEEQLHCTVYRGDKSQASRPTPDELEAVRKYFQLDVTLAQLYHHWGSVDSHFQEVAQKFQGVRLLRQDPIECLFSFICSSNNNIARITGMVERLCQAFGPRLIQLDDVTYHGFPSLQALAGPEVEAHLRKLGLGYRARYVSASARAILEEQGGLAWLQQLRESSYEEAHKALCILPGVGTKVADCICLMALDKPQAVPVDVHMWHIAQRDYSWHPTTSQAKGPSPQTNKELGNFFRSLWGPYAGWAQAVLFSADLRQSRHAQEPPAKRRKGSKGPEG

SMILES | inhibition [1] | inhibition [2] | inhibition [3] | inhibition [4] | inhibition [5] | inhibition ([6]; Hit No) | inhibition [7] | inhibition [8] | inhibition [9] | inhibition ([6]; Hit Yes)
COCCn1c(C)c(C)s/c1=N\C(=O)C1C(C)(C)C1(C)C | -7.23% | -8.69% | 20.8% | 3.06% | 1.51% | 5.33% | -0.421% | 7.06% | -7.32% | 
O=C(O)CC/C=C\C[C@@H]1CO[C@H](c2ccccc2Cl)O[C@@H]1c1ccccc1O | 0.092% | 4.5% | 8.47% | -2.87% | 0.265% | -7.71% | 0.5% | 13.8% | -7.83% | 
CC(C)N(CCCCOCC(=O)NS(C)(=O)=O)c1cnc(-c2ccccc2)c(-c2ccccc2)n1 | 80.6% | 55.8% | 47.5% | 9.29% | 6.75% | 17.1% | -1.68% | 51% |  | 
CN(C)c1ccnc2sc3c(=O)n(N4CCCCCC4)cnc3c12 | -2.87% | 2.57% | 6.93% | 7.65% | 16% | 18.5% | -6.77% | 5.33% |  | 
CC[C@@H]1C(=O)N(C)c2cnc(Nc3ccc(C(=O)NC4CCN(C)CC4)cc3OC)nc2N1C1CCCC1 | 33% | 7.81% | 38.1% | 2.78% |  | -5.59% | 23.4% | 69.8% | 13.3% | 
CCCCc1oc2ccccc2c1C(=O)c1cc(I)c(OCCN(CC)CC)c(I)c1 | 28.2% | 5.3% | -0.487% |  | -6.36% | 0.672% | 15.3% | 30.6% | 1.42% | 
NS(=O)(=O)c1cncc(-c2nc(NCc3ccccn3)c3c(-c4ccccc4)cccc3n2)c1 | 16% | 0.0701% | 8.92% | 10.4% | -1.88% |  | 7.73% | 14.7% | 0.783% | 
CC(COc1ccccc1)N(CCCl)Cc1ccccc1 (configuration not stated) | 6.02% | 8.43% | 20.2% | -3.32% | 5.01% |  | -8.75% | 9.17% |  | 41.7%
CC#C[C@@H](CC(=O)O)c1ccc(OCc2cccc(-c3ccc(C(F)(F)F)cc3)c2)cc1 | 48.1% | 28.7% | 47.2% | 1.13% | 0.764% |  |  | 41.7% | -4.48% | 64.3%
CCc1cc2c(c(CC)n1)CCC(=O)N2Cc1ccc(-c2ccccc2-c2nnn[nH]2)cc1 | 2.76% | 6.08% | 24.1% | 13.9% | 2.26% | 6.16% | -8.27% | 13.7% |  | 
O=C(O)COc1cccc(CN(Cc2ccc(-n3cccn3)cc2)S(=O)(=O)c2cccnc2)c1 | 13.1% | 2.46% | 5.01% | 0.389% | -7.47% |  | -3.28% | -2.75% |  | 
CC(C)NC(=O)c1ccc(C#Cc2ccncc2)cn1 | -1.07% | -5.61% | 12.7% | 7.51% | 5.76% | 2.41% | 2.68% | 8.93% |  | 
C=CC(=O)Nc1ccc2[nH]c(=O)n(C3CCN(C(=O)c4ccc(-c5nc6cc[nH]c(=O)c6cc5-c5ccccc5)cc4)CC3)c2c1 | -5.4% | -2.18% | 1.89% | -0.919% | 19.4% | 78.5% |  | 58.7% | -1.3% | 
Cc1cc([C@@H](C)Nc2cccc(-c3cc(C)c(C(=O)N[C@@H](C)C(=O)O)c(C)c3)c2)ccc1Cl | 41.7% | 24.6% | 43.4% | -0.204% | -3.73% | 24.2% |  | 36.1% | -6.25% | 
CCCc1nc2c(C)cc(-c3nc4ccccc4n3C)cc2n1Cc1ccc(-c2ccccc2C(=O)O)cc1 | 15.7% | -0.129% | 24.6% | 15.1% | 15.5% |  | 3.75% | 18.9% | -6.03% | 
COc1cc(/C=C/C(=O)NCCn2c(C)cc3ccccc32)cc(OC)c1OC | 11.5% | 27.9% | 6.04% | -9.62% | 4.49% |  | -8.26% | 15.6% | -0.0662% | 
Cc1cccc(S(=O)(=O)N(C)[C@H](C)CCN2CCC(C)CC2)c1 | 3.33% | -2.23% | 9.55% | 1.79% | 6.53% |  | 1.46% | 1.58% | -5.83% | 
Cc1c(F)cccc1NC(=O)Nc1ccc(Cl)c(S(=O)(=O)[C@H]2CCCNC2)c1O | 0.266% | 11.6% | -4.97% |  | -7.22% |  | -3.57% | 3.94% | -9.51% | 
Cc1cc(-c2ccc3c(c2)CC[C@H]3N2CC3(CCN(C(=O)Cc4cn5cc(C)sc5n4)CC3)C2)ncn1 | 2.75% | -2.4% | 0.491% | -1.18% |  | -7.69% | -0.24% | 6.67% | -6.41% | 
COc1c(Nc2ccc(S(C)(=O)=O)nc2C)ncnc1OC1CCN(C(=O)OC(C)C)CC1 | -6.99% | -8.34% | 16.4% | -6.28% | 6% | -1.26% | -7.64% | -5.57% |  | 
COc1cc(C(=O)N(CCCc2ccccc2)Cc2ccc(CC(=O)O)cc2)cc(OC)c1C | 21.5% | 2.65% | 20.4% | -1.83% | -7.97% | -6.84% | -4.44% | 17.3% |  | 
CCCCC#Cc1nc(NC)c2ncn([C@@H]3O[C@H](CO)[C@@H](O)[C@H]3O)c2n1 | 0.324% | -9.85% | -0.235% | -4.5% | 5.51% | -7.52% | -0.13% | -7.72% |  | 
CC(=O)Nc1nc2c(Oc3cc(-c4ccc(C(F)(F)F)cc4)ncn3)cccc2s1 | 1.85% | 11.2% | -8.12% | 4.31% | -1.88% |  | -4.87% | -3.88% | -3.19% | 
COc1ccc(Br)cc1S(=O)(=O)NC(=O)/C=C/c1ccccc1Cc1ccc2ccccc2c1 | 18% | -3.79% | 5.65% | 0.537% | 6.5% | 30.2% | -2.31% | 2.91% |  | 
